Reference: the supplement of paper PMC10307832

Legend:
Assay in all cases: relative viability (nuclei count vs DMSO), 5 days (fraction); higher = more cells survive
[1] = system: NCI-H2023
In short: (§1)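 Dosing by pin tool came one day after lung cancer cell lines were seeded in 1536-well plates, using either one drug or a fixed anchor-drug dose plus five library-drug doses (not always all listed) in √10 steps. After 5 days, nuclei were counted on 4× images. Relative viability is treated-well nuclei count divided by vehicle-well nuclei count, and values are medians of duplicate plates.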

[2] = system: NCI-H2405
In short: as §1

[3] = system: NCI-H2170
In short: as §1

[4] = system: NCI-H1734
In short: as §1

[5] = system: NCI-H647
In short: as §1

[6] = system: LOU-NH91
In short: as §1

[7] = system: EPLC-272H
In short: as §1

[8] = system: SW 900
In short: as §1

[9] = system: PC-14
In short: as §1

[10] = system: NCI-H1793
In short: as §1

[11] = system: NCI-H2347
In short: as §1

[12] = system: NCI-H441
In short: as §1

[13] = system: HCC-15
In short: as §1

[14] = system: NCI-H3122
In short: as §1

[15] = system: COR-L23
In short: as §1

[16] = system: NCI-H322M
In short: as §1

[17] = system: H3255
In short: as §1

[18] = system: UMC-11
In short: as §1

[19] = system: NCI-H520
In short: as §1

[20] = system: NCI-H1650
In short: as §1

[21] = system: 201T
In short: as §1

SMILES: O=c1cc(N2CCOCC2)oc2c(-c3cccc4c3sc3ccccc34)cccc12 + Cc1cc(Nc2cc(N3CCN(C)CC3)nc(Sc3ccc(NC(=O)C4CC4)cc3)n2)n[nH]1 [Tozasertib] (partner 0.1 µM)
- relative viability ([1]; first compound 0.01 µM): 0.353
- relative viability ([1]; first compound 0.03162 µM): 0.402
- relative viability ([1]; first compound 0.1 µM): 0.438
- relative viability ([1]; first compound 0.3162 µM): 0.359
- relative viability ([1]; first compound 1 µM): 0.373
- relative viability ([2]; first compound 0.01 µM): 0.727
- relative viability ([2]; first compound 0.03162 µM): 0.753
- relative viability ([2]; first compound 0.1 µM): 0.821
- relative viability ([2]; first compound 0.3162 µM): 0.734
- relative viability ([2]; first compound 1 µM): 0.75
- relative viability ([3]; first compound 0.01 µM): 0.741
- relative viability ([3]; first compound 0.03162 µM): 0.673
- relative viability ([3]; first compound 0.1 µM): 0.758
- relative viability ([3]; first compound 0.3162 µM): 0.801
- relative viability ([3]; first compound 1 µM): 0.707
- relative viability ([4]; first compound 0.01 µM): 0.236
- relative viability ([4]; first compound 0.03162 µM): 0.264
- relative viability ([4]; first compound 0.1 µM): 0.307
- relative viability ([4]; first compound 0.3162 µM): 0.259
- relative viability ([4]; first compound 1 µM): 0.243
- relative viability ([5]; first compound 0.01 µM): 0.369
- relative viability ([5]; first compound 0.03162 µM): 0.32
- relative viability ([5]; first compound 0.1 µM): 0.262
- relative viability ([5]; first compound 0.3162 µM): 0.295
- relative viability ([5]; first compound 1 µM): 0.226
- relative viability ([6]; first compound 0.01 µM): 0.642
- relative viability ([6]; first compound 0.03162 µM): 0.65
- relative viability ([6]; first compound 0.1 µM): 0.655
- relative viability ([6]; first compound 0.3162 µM): 0.697
- relative viability ([6]; first compound 1 µM): 0.65
- relative viability ([7]; first compound 0.01 µM): 0.288
- relative viability ([7]; first compound 0.03162 µM): 0.327
- relative viability ([7]; first compound 0.3162 µM): 0.206
- relative viability ([7]; first compound 1 µM): 0.253
- relative viability ([8]; first compound 0.01 µM): 0.505
- relative viability ([8]; first compound 0.03162 µM): 0.651
- relative viability ([8]; first compound 0.1 µM): 0.656
- relative viability ([8]; first compound 0.3162 µM): 0.574
- relative viability ([8]; first compound 1 µM): 0.548
- relative viability ([9]; first compound 0.01 µM): 0.567
- relative viability ([9]; first compound 0.03162 µM): 0.572
- relative viability ([9]; first compound 0.1 µM): 0.575
- relative viability ([9]; first compound 0.3162 µM): 0.535
- relative viability ([9]; first compound 1 µM): 0.577
- relative viability ([10]; first compound 0.01 µM): 0.352
- relative viability ([10]; first compound 0.1 µM): 0.324
- relative viability ([10]; first compound 0.3162 µM): 0.312
- relative viability ([10]; first compound 1 µM): 0.276
- relative viability ([11]; first compound 0.01 µM): 0.618
- relative viability ([11]; first compound 0.03162 µM): 0.599
- relative viability ([11]; first compound 0.1 µM): 0.538
- relative viability ([11]; first compound 0.3162 µM): 0.526
- relative viability ([11]; first compound 1 µM): 0.549
- relative viability ([12]; first compound 0.01 µM): 0.671
- relative viability ([12]; first compound 0.03162 µM): 0.713
- relative viability ([12]; first compound 0.1 µM): 0.692
- relative viability ([12]; first compound 0.3162 µM): 0.658
- relative viability ([12]; first compound 1 µM): 0.719
- relative viability ([13]; first compound 0.01 µM): 0.413
- relative viability ([13]; first compound 0.03162 µM): 0.379
- relative viability ([13]; first compound 0.1 µM): 0.433
- relative viability ([13]; first compound 0.3162 µM): 0.33
- relative viability ([13]; first compound 1 µM): 0.448
- relative viability ([14]; first compound 0.01 µM): 0.39
- relative viability ([14]; first compound 0.03162 µM): 0.418
- relative viability ([14]; first compound 0.1 µM): 0.417
- relative viability ([14]; first compound 0.3162 µM): 0.378
- relative viability ([14]; first compound 1 µM): 0.349
- relative viability ([15]; first compound 0.01 µM): 0.213
- relative viability ([15]; first compound 0.03162 µM): 0.231
- relative viability ([15]; first compound 0.1 µM): 0.18
- relative viability ([15]; first compound 0.3162 µM): 0.234
- relative viability ([15]; first compound 1 µM): 0.225
- relative viability ([16]; first compound 0.01 µM): 0.49
- relative viability ([16]; first compound 0.03162 µM): 0.464
- relative viability ([16]; first compound 0.1 µM): 0.485
- relative viability ([16]; first compound 0.3162 µM): 0.473
- relative viability ([16]; first compound 1 µM): 0.407
- relative viability ([17]; first compound 0.01 µM): 0.789
- relative viability ([17]; first compound 0.03162 µM): 0.484
- relative viability ([17]; first compound 0.1 µM): 0.709
- relative viability ([17]; first compound 0.3162 µM): 0.593
- relative viability ([17]; first compound 1 µM): 0.606
- relative viability ([18]; first compound 0.01 µM): 0.194
- relative viability ([18]; first compound 0.03162 µM): 0.208
- relative viability ([18]; first compound 0.1 µM): 0.202
- relative viability ([18]; first compound 0.3162 µM): 0.209
- relative viability ([18]; first compound 1 µM): 0.202
- relative viability ([19]; first compound 0.01 µM): 0.38
- relative viability ([19]; first compound 0.03162 µM): 0.409
- relative viability ([19]; first compound 0.1 µM): 0.418
- relative viability ([19]; first compound 0.3162 µM): 0.438
- relative viability ([19]; first compound 1 µM): 0.442
- relative viability ([20]; first compound 0.01 µM): 0.383
- relative viability ([20]; first compound 0.03162 µM): 0.416
- relative viability ([20]; first compound 0.1 µM): 0.392
- relative viability ([20]; first compound 0.3162 µM): 0.373
- relative viability ([20]; first compound 1 µM): 0.352
- relative viability ([21]; first compound 0.01 µM): 0.93
- relative viability ([21]; first compound 0.03162 µM): 0.916
- relative viability ([21]; first compound 0.1 µM): 0.983
- relative viability ([21]; first compound 0.3162 µM): 0.883
- relative viability ([21]; first compound 1 µM): 0.881
